Measured values: patent publication US20090111759A1, “Synergistic Combination of Glutamate-and Gaba-Gated Chloride Agonist Pesticide and at Least One Vitamin E, Niacin, or Derivatives Thereof” (priority 2006, published 2009)

Key:
[1] = test system: Dysdercus cingulatus nymphs; type: in vivo; settings: 2000 ng applied on each nymph; 24 h after applying
Experimental: A range of Abamectin solutions in acetone was prepared. Similarly, a range of tocopherol, all-rac alpha, solutions in acetone was prepared. Abamectin solution (2 μl), tocopherol solution (2 μl) or both were applied topically on nymphs of Dysdercus cingulatus. Abamectin was applied dorsally while tocopherol was applied ventrally. […] The mortality of the nymphs was recorded 24 h after applying the solutions.

[2] = test system: Dysdercus cingulatus nymphs; assay: Topical application of Abamectin/tocopherol acetone solutions, LD50 (Example 5); type: in vivo; settings: sum of Abamectin and tocopherol; mortality recorded 48 h after applying
Experimental: (§1) A range of Abamectin solutions in acetone was prepared. Similarly, a range of tocopherol, all-rac alpha, solutions was prepared. Mixed solutions of Abamectin and tocopherol in acetone were prepared as well. Nymphs of Dysdercus cingulatus were treated topically with either an Abamectin acetone solution (2 μl), a tocopherol acetone solution (2 μl) or mixed solutions (2 μl). The Dysdercus cingulatus mortality was recorded 48 h after applying the products.
Log dose-mortality curves were constructed for the Abamectin and the tocopherol treatments. LD50 values based on the sum of Abamectin and tocopherol contents (ng active ingredient(s) per nymph) were calculated.
From the observed LD50 values for Abamectin and tocopherol expected LD50 values for the mixtures were calculated according to Wadley's formula.

[3] = test system: Dysdercus cingulatus nymphs; assay: Topical application of Abamectin/nicotinamide acetone solutions, LD50 (Example 7); type: in vivo; settings: sum of Abamectin and nicotinamide; mortality recorded 48 h after applying
Experimental: as §1, with “nicotinamide” for “tocopherol, all-rac alpha,”, “nicotinamide” for “tocopherol”, “μl).” for “μl). The Dysdercus cingulatus mortality was recorded 48 h after applying the products.”
The Dysdercus cingulatus mortality was recorded 48 h after applying the products. Log dose-mortality curves were constructed for the Abamectin, the nicotinamide and for the mixed solutions. The LD50 values reflect the sum of Abamectin and nicotinamide (active ingredients) present at LD50.
From the observed LD50 values for Abamectin and nicotinamide expected LD50 values for the mixtures were calculated according to Wadley's formula.

[4] = test system: Dysdercus cingulatus nymphs; type: in vivo; settings: in total 20,000 ng/nymph applied dorsally; two replicates of ten nymphs
Experimental: Abamectin, Ivermectin and tocopherol solutions in acetone were prepared. Mixed solutions of either Abamectin or Ivermectin and tocopherol were also prepared. Nymphs of Dysdercus cingulatus were treated topically with Abamectin acetone solution (20,000 ng/nymph), Ivermectin acetone solution (20,000 ng/nymph), a tocopherol acetone solution (20,000 ng/nymph) or a solution containing Abamectin and tocopherol or Ivermectin and tocopherol in the ratio 1:3 (20,000 ng total/nymph). The solutions were applied dorsally on the nymphs.
The Dysdercus cingulatus mortality was followed over time and recorded. Log time-mortality curves were constructed for the Abamectin and Ivermectin solutions and for the mixtures with tocopherol. An LT50 value was calculated for each application.

Spodoptera exigua larvae [5] = settings: single ingredient, 10 ppm in tests solution
Experimental: (§2) The efficacy of an Abamectin 18 g/l emulsifiable concentrate formulation (EC) was tested on Spodoptera exiqua larvae on Tradescani crassifolia leaves. The test on Spodoptera exigua was done as a dip-test where Tradescani crassifolia leaves were dipped in the various tests solutions and dried. Afterwards, each leaf was infested with 5 Spodoptera exigua larvae.
(§3) Besides testing the Abamectin 18 g/l EC formulation, Abamectin 18 g/l EC formulation was tested together with 4.5 g/l and 72 g/l nicotinamide. An EC formulation comprising nicotinamide was included in the test as well.

Spodoptera exigua larvae [6] = assay: whole plant or invertebrate; settings: read-out: Observed mortality (%)
Experimental: as §2, §3

Molecule	% Mortality for each ingredient [1] [%]	LD50obs [2]	LD50obs [3]	LT50 [4] [h]	Observed mortality (%) (Spodoptera exigua larvae [5])	mortality at 10 ppm (Spodoptera exigua larvae [6]) [%]
Abamectin	74	1595 ng AI(s) per nymph	126 ng AI(s) per nymph	5.3	10	
NC(=O)c1cccnc1 [nicotinamide]			>20,000 ng AI(s) per nymph			0
